From ChEMBL document CHEMBL4265935, “Synthesis and evaluation of novel arctigenin derivatives as potential anti-Toxoplasma gondii agents” (Eur J Med Chem, 2018)
pIC50: −log10 of the molar value. Active and inactive are the calls of the source. No cut-off for these calls is given here.

How the values were obtained:
HeLa = assay: Cytotoxicity against human HeLa cells assessed as reduction in cell viability by MTT assay; assay type: cell-based
Toxoplasma gondii [1] = assay: Antiparasitic activity against Toxoplasma gondii RH tachyzoites by MTT assay; assay type: functional, organism-based
[2] = Selectivity index, ratio of IC50 for human HeLa cells to ratio of IC50 for Toxoplasma gondii RH tachyzoites; assay type: toxicity; details: HeLa cells versus Toxoplasma gondii RH tachyzoites, read-out: Ratio IC50
Toxoplasma gondii [3] = assay: Antiparasitic activity against Toxoplasma gondii RH tachyzoites infected in human HeLa cells assessed as cell survival at 100 uM after 24 hrs by trypan blue assay (reference value: 20.8%); assay type: functional
Toxoplasma gondii [4] = assay: Antiparasitic activity against Toxoplasma gondii RH tachyzoites infected in human HeLa cells assessed as increase in cell survival at 100 uM after 24 hrs by trypan blue assay relative to spiramycin; assay type: functional
Toxoplasma gondii [5] = assay: Antiparasitic activity against Toxoplasma gondii RH infected in Kunming mouse assessed as increase in GSH level in liver at 100 mg/kg, po qd administered via gavage for 4 consecutive days measured on day 5; assay type: functional, organism-based
Toxoplasma gondii [6] = assay: Antiparasitic activity against Toxoplasma gondii RH infected in Kunming mouse assessed as increase in survival rate by measuring mortality day at 100 mg/kg, po qd administered via gavage for several consecutive days measured on day 12 (reference value: 9 to 11 days); assay type: functional
Toxoplasma gondii [7] = assay: Antiparasitic activity against Toxoplasma gondii RH infected in Kunming mouse assessed as inhibition of number of intraperitoneal tachyzoite in abdominal cavity at 100 mg/kg, po qd administered via gavage for 4 consecutive days measured on day 5 by light microscopic analysis relative to control; assay type: functional; details: 120 h
Toxoplasma gondii [8] = assay: Antiparasitic activity against Toxoplasma gondii RH infected in Kunming mouse assessed as reduction in serum AST level at 100 mg/kg, po qd administered via gavage for 4 consecutive days measured on day 5; assay type: functional, organism-based
Toxoplasma gondii [9] = assay: Antiparasitic activity against Toxoplasma gondii RH infected in Kunming mouse assessed as improvement of hepatomegaly at 100 mg/kg, po qd administered via gavage for 4 consecutive days measured on day 5; assay type: functional, organism-based
Toxoplasma gondii [10] = assay: Antiparasitic activity against Toxoplasma gondii RH infected in Kunming mouse assessed as reduction in serum ALT level at 100 mg/kg, po qd administered via gavage for 4 consecutive days measured on day 5; assay type: functional, organism-based
Toxoplasma gondii [11] = assay: Antiparasitic activity against Toxoplasma gondii RH infected in Kunming mouse assessed as increase in survival rate by measuring mortality day at 100 mg/kg, po qd administered via gavage for several consecutive days measured on day 10 (reference value: 9 to 11 days); assay type: functional
Toxoplasma gondii [12] = assay: Antiparasitic activity against Toxoplasma gondii RH tachyzoites infected in human HeLa cells assessed as decrease in cell shrinkage at 100 uM after 24 hrs by inverted optical microscopic analysis; assay type: functional, organism-based
Toxoplasma gondii [13] = assay: Antiparasitic activity against Toxoplasma gondii RH infected in Kunming mouse assessed as decrease in GSH level in liver at 100 mg/kg, po qd administered via gavage for 4 consecutive days measured on day 5; assay type: functional, organism-based
Toxoplasma gondii [14] = assay: Antiparasitic activity against Toxoplasma gondii RH tachyzoites infected in human HeLa cells assessed as decrease in number of cell death at 100 uM after 24 hrs by inverted optical microscopic analysis; assay type: functional, organism-based
Toxoplasma gondii [15] = assay: Antiparasitic activity against Toxoplasma gondii RH infected in Kunming mouse assessed as survival rate at 100 mg/kg, po qd administered via gavage for several consecutive days measured on day 20 relative to control; assay type: functional; details: 480 h
Toxoplasma gondii [16] = assay: Antiparasitic activity against Toxoplasma gondii RH infected in Kunming mouse assessed as increase in body weight at 100 mg/kg, po qd administered via gavage for several consecutive days; assay type: functional, organism-based
Toxoplasma gondii [17] = assay: Antiparasitic activity against Toxoplasma gondii RH infected in Kunming mouse assessed as inhibition of number of intraperitoneal tachyzoite in abdominal cavity at 200 mg/kg, po qd administered via gavage for 4 consecutive days measured on day 5 by light microscopic analysis relative to control; assay type: functional
Toxoplasma gondii [18] = assay: Antiparasitic activity against Toxoplasma gondii RH infected in Kunming mouse assessed as improvement of splenomegaly at 100 mg/kg, po qd administered via gavage for 4 consecutive days measured on day 5; assay type: functional, organism-based

Structure (SMILES) | pIC50 (HeLa) | pIC50 (Toxoplasma gondii [1]) | selectivity ratio [2] | further results
COc1ccc(C[C@H]2COC(=O)[C@@H]2Cc2ccc(OCC(=O)N3CCOCC3)c(OC)c2)cc1OC | ≤ 3.22 | ≤ 3.22 |  | 
COc1ccc(C[C@H]2COC(=O)[C@@H]2Cc2ccc(OCc3cn(-c4ccc(Br)cc4)nn3)c(OC)c2)cc1OC | 3.89 | 3.37 | 0.3 | 
COc1ccc(C[C@H]2COC(=O)[C@@H]2Cc2ccc(OC(=O)CCC(=O)N3CCCCC3)c(OC)c2)cc1OC | 3.89 | 4.39 | 3.12 | 
COC(=O)CNC(=O)CCC(=O)Oc1ccc(C[C@H]2C(=O)OC[C@@H]2Cc2ccc(OC)c(OC)c2)cc1OC | 3.75 | 3.80 | 1.14 | 
COc1ccc(C[C@H]2COC(=O)[C@@H]2Cc2ccc(OCc3cn(-c4ccccc4)nn3)c(OC)c2)cc1OC | 3.91 | 3.87 | 0.92 | 
CCN(CC)C(=O)CCC(=O)Oc1ccc(C[C@H]2C(=O)OC[C@@H]2Cc2ccc(OC)c(OC)c2)cc1OC | 3.67 | 3.69 | 1.04 | 
COC(=O)[C@H](CC(C)C)NC(=O)CCC(=O)Oc1ccc(C[C@H]2C(=O)OC[C@@H]2Cc2ccc(OC)c(OC)c2)cc1OC | 4.27 | 4.20 | 0.85 | 
COC(=O)[C@@H](NC(=O)CCC(=O)Oc1ccc(C[C@H]2C(=O)OC[C@@H]2Cc2ccc(OC)c(OC)c2)cc1OC)C(C)C | 4.19 | 4.49 | 1.96 | 
COc1ccc(C[C@H]2COC(=O)[C@@H]2Cc2ccc(OCc3cn(Cc4ccccc4)nn3)c(OC)c2)cc1OC | 3.46 | 3.19 | 0.53 | 
COc1ccc(C[C@H]2COC(=O)[C@@H]2Cc2ccc(OCc3cn(-c4cccc(Cl)c4)nn3)c(OC)c2)cc1OC | 3.31 | 3.57 | 1.83 | 
COc1ccc(C[C@H]2COC(=O)[C@@H]2Cc2ccc(OC(=O)CCC(=O)N3CCCC3)c(OC)c2)cc1OC | 3.70 | 3.94 | 1.74 | 
COc1ccc(C[C@H]2COC(=O)[C@@H]2Cc2ccc(OCc3cn(-c4ccc(F)cc4)nn3)c(OC)c2)cc1OC | ≤ 3.22 | ≤ 3.22 |  | 
COC(=O)CC[C@H](NC(=O)CCC(=O)Oc1ccc(C[C@H]2C(=O)OC[C@@H]2Cc2ccc(OC)c(OC)c2)cc1OC)C(=O)OC | 4.02 | 3.80 | 0.61 | 
COc1ccc(C[C@H]2COC(=O)[C@@H]2Cc2ccc(OCC(=O)Nc3ccccc3)c(OC)c2)cc1OC | ≤ 3.22 | 4.39 | > 14.8 | survival at 100 µM (Toxoplasma gondii [3]): 69.7%; Activity (Toxoplasma gondii [4]): 29.7%; Activity (Toxoplasma gondii [5]): Active; mortality (Toxoplasma gondii [6]): 12 days; inhibition in vivo at 100 mg/kg (Toxoplasma gondii [7]): 82%; Activity (Toxoplasma gondii [8]): Active; Activity (Toxoplasma gondii [9]): Active; Activity (Toxoplasma gondii [10]): inactive
COc1cc(C[C@H]2C(=O)OC[C@@H]2Cc2ccc(OC)c(OC)c2)ccc1O [ARCTIGENIN] | 3.24 | 3.23 | 0.98 | mortality (Toxoplasma gondii [11]): 10 days; Activity (Toxoplasma gondii [12]): Active; Activity (Toxoplasma gondii [4]): 18.4%; Activity (Toxoplasma gondii [13]): Active; Activity (Toxoplasma gondii [14]): Active; survival at 100 mg/kg (Toxoplasma gondii [15]): 16%; inhibition in vivo at 100 mg/kg (Toxoplasma gondii [7]): 75.9%; Activity (Toxoplasma gondii [8]): Active; Activity (Toxoplasma gondii [16]): Active; inhibition (Toxoplasma gondii [17]): Active; Activity (Toxoplasma gondii [9]): Active; Activity (Toxoplasma gondii [10]): inactive
COc1ccc(C[C@H]2COC(=O)[C@@H]2Cc2ccc(OCc3cn(Cc4ccccc4Cl)nn3)c(OC)c2)cc1OC | 4.07 | 4.61 | 3.48 | 

Structure (SMILES) | pIC50 (HeLa) | pIC50 (Toxoplasma gondii [1]) | selectivity ratio [2] | further results
COC(=O)[C@@H](NC(=O)CCC(=O)Oc1ccc(C[C@H]2C(=O)OC[C@@H]2Cc2ccc(OC)c(OC)c2)cc1OC)c1ccccc1 | 4.11 | 4.07 | 0.92 | 
COC(=O)[C@H](Cc1ccccc1)NC(=O)CCC(=O)Oc1ccc(C[C@H]2C(=O)OC[C@@H]2Cc2ccc(OC)c(OC)c2)cc1OC | ≤ 3.22 | ≤ 3.22 |  | 
COc1ccc(C[C@H]2COC(=O)[C@@H]2Cc2ccc(OCc3cn(Cc4ccccc4F)nn3)c(OC)c2)cc1OC | ≤ 3.22 | 4.77 | > 35.1 | Activity (Toxoplasma gondii [18]): Active; survival at 100 µM (Toxoplasma gondii [3]): 68.4%; mortality (Toxoplasma gondii [11]): 10 days; Activity (Toxoplasma gondii [4]): 28.4%; Activity (Toxoplasma gondii [5]): Active; Activity (Toxoplasma gondii [13]): Active; survival at 100 mg/kg (Toxoplasma gondii [15]): 16%; inhibition in vivo at 100 mg/kg (Toxoplasma gondii [7]): 66.9%; Activity (Toxoplasma gondii [8]): Active; Activity (Toxoplasma gondii [16]): Active; Activity (Toxoplasma gondii [9]): Active; Activity (Toxoplasma gondii [10]): inactive
COC(=O)[C@@H]1CCCN1C(=O)CCC(=O)Oc1ccc(C[C@H]2C(=O)OC[C@@H]2Cc2ccc(OC)c(OC)c2)cc1OC | 3.84 | 4.36 | 3.31 | 
COc1ccc(C[C@H]2COC(=O)[C@@H]2Cc2ccc(OCC(=O)N3CCCCC3)c(OC)c2)cc1OC | 3.53 | 3.51 | 0.94 | 
COc1ccc(C[C@H]2COC(=O)[C@@H]2Cc2ccc(OCc3cn(Cc4ccc(F)cc4)nn3)c(OC)c2)cc1OC | 3.70 | ≤ 3.22 | < 0.33 | 
COc1ccc(-n2cc(COc3ccc(C[C@H]4C(=O)OC[C@@H]4Cc4ccc(OC)c(OC)c4)cc3OC)nn2)cc1 | ≤ 3.22 | ≤ 3.22 |  | 
COc1ccc(C[C@H]2COC(=O)[C@@H]2Cc2ccc(OCC(=O)N3CCCC3)c(OC)c2)cc1OC | ≤ 3.22 | 3.47 | > 1.78 | 
CCN(CC)C(=O)COc1ccc(C[C@H]2C(=O)OC[C@@H]2Cc2ccc(OC)c(OC)c2)cc1OC | 3.73 | 3.41 | 0.48 | 
COc1ccc(C[C@H]2COC(=O)[C@@H]2Cc2ccc(OCc3cn(-c4ccc(Cl)cc4)nn3)c(OC)c2)cc1OC | 3.55 | 3.56 | 1 | 
COc1ccc(C[C@H]2COC(=O)[C@@H]2Cc2ccc(OCC(=O)Nc3ccc(C)cc3)c(OC)c2)cc1OC | 3.64 | 3.49 | 0.71 | 
COC(=O)[C@@H](Cc1ccccc1)NC(=O)CCC(=O)Oc1ccc(C[C@H]2C(=O)OC[C@@H]2Cc2ccc(OC)c(OC)c2)cc1OC | 3.45 | 3.65 | 1.58 | 
COc1ccc(C[C@H]2COC(=O)[C@@H]2Cc2ccc(OCc3cn(Cc4ccc(Cl)cc4)nn3)c(OC)c2)cc1OC | 3.62 | 3.60 | 0.97 | 
COc1ccc(C[C@H]2COC(=O)[C@@H]2Cc2ccc(OCc3cn(-c4ccc(C)cc4)nn3)c(OC)c2)cc1OC | ≤ 3.22 | 3.44 | > 1.64 | 
COC(=O)[C@H](CCSC)NC(=O)CCC(=O)Oc1ccc(C[C@H]2C(=O)OC[C@@H]2Cc2ccc(OC)c(OC)c2)cc1OC | 3.70 | 3.78 | 1.2 | 
CCN1CCN(C(=O)CCC(=O)Oc2ccc(C[C@H]3C(=O)OC[C@@H]3Cc3ccc(OC)c(OC)c3)cc2OC)CC1 | 3.72 | 4.03 | 2.01 | 
